From paper PMC8329280 (Scientific Reports, 2021)
Converted amounts (≈) assume the structure as drawn. “Also recorded” adds a separate entry of the source. Starred links: 1 amine or outer side, 2 acyl side, 3 side chain; linkers in the order of their positions; H or OH if unused. Positions of bridges follow the written chain, without caps; N, C: chain ends. Non-standard residues stand in square brackets, D forms with d. Residues, ends and D or L forms follow the SMILES beside them. Chains are numbered I, II in the order given. X1 = O=C1CC([*:1])C(=O)N1CCOCCOCCOCCN1C(=O)CC([*:2])C1=O; Dopa = N[C@@H](Cc1ccc(O)c(O)c1)C(=O)O

How the values were obtained:
[1] = test system: methicillin sensitive S. aureus (MSSA, strain 49775); type: cell-based, Staphylococcus aureus; settings: for MIC100 MSSA: MSSA strain 49775, MHB medium pH 7.4, 24 h at 37 °C, A620 nm, triplicates
Procedure: (§1) Antibacterial assays were realized to the method previously reported[22],[25]. S. aureus strains were pre-cultured for 20 h in aerobic conditions at 37 °C in Mueller–Hinton Broth (MHB) medium (Becton–Dickinson Microbiology Company, Sparks, USA) (pH 7.4). Bacteria were suspended at absorbance of 0.001 at 620 nm in the MHB medium. Antibacterial activity was tested for 24 h incubation at 37 °C with shaking by measuring the inhibition of bacterial growth. Ten µl of final volumes (10–200 µg/mL) of synthetic peptides were incubated in microtitration plates with 90 µl of a mid-logarithmic phase culture of bacteria, with a starting absorbance of 0.001 at 620 nm. A mixture of Tetracycline (10 mg/L) and Cefotaxime (0.1 mg/L) were used as positive controls. Microbial growth was assessed by the increase of absorbance after 24 h incubation at 37 °C. The A620 nm value of control cultures growing in the absence of peptide and antibiotics was defined as 100% growth. A620 nm value with the antibiotics (Tetracycline and Cefotaxime) was taken as 100% inhibition. Absence of bacterial growth was verified by agar plate spreading. Each assay was performed in triplicates. Data were shown as mean + /− standard deviation of three independent experiments; p < 0.05.

[2] = test system: Endoprotease Glu-C from S. aureus V8 (E.C. 3.4.21.19); test: Endoprotease Glu-C in 50 mM Tris–HCl pH 8.2 or PBS; settings: S. aureus V8 (enzyme source), 37 °C, up to 18 h
[3] = test system: Endoprotease Glu-C from S. aureus V8 (E.C. 3.4.21.19); test: endoprotease Glu-C in 50 mM Tris–HCl pH 8.2 or PBS; settings: S. aureus V8, 37 °C, up to 18 h
CD14 cells = test: Cytokine release assay, ELISA; type: cell-based, human; settings: 24 h, cells from 2 patients
Procedure: Three types of immune cells were prepared from human monocytes provided from the EFS (Etablissement Français du Sang). Dendritic cells (DC1a), CD14 and macrophages were obtained after treatment of monocytes by cytokines according to the methods previously reported[31],[32] and the identification of the immune cells was validated by using flow cytometry analysis (Fluorescence Activated Cell Sorting, FACS).
(§2) The release of cytokines IL-6, IL-8, IL-10 and TNF-α induced after the treatment of immune cells by Cts was realized by the use of an automated ELISA immunoassay (Immulite One, Siemens la Garenne-Colombe, France) and with the Bio-Plex Multiplex Immunoassay system (Bio-Rad, Marnes-la-Coquette) for the treatment of Human Peripheral Blood Mononuclear Cells (PBMCs) by L-Ctl, D-Ctl, Ctl-C, D-Ctl-C and P3. PBMCs from healthy volunteers were obtained from the blood transfusion centre of Strasbourg (Etablissement Français du Sang, Strasbourg) and isolated by density gradient centrifugation using Lymphoprep (Stemcell Technologies). PMBC were then maintained in AIM V medium (Thermo Fisher Scientific, Waltham, MA, USA) at 37 °C in a 5% CO2 humidified incubator and treated for 24 h with 30 µM of each peptide (L-Ctl, D-Ctl, Ctl-C, D-Ctl-C and P3). Three technical replicates were performed for each condition. Supernatants were then filtered and assessed for cytokine dosage according to the manufacturer’s instructions.

MSSA = type: cell-based, Staphylococcus aureus
Procedure: (§3) The L- and D- forms of Ctl and also the corresponding L- and D-forms of the scramble peptides were tested by Atlangram (Nantes, France) against resistant Gram-negative bacteria (Escherichia coli, Klebsiella pneumoniae, Enterobacter cloacae, Enterobacter aerogenes, Serratia marcescens, Morganella morganii, Pseudomonas aeruginosa), MSSA, MRSA and yeast (C. albicans). The MICs were determined according to the CASFM/EUCAST 2018 (Comité de l’Antibiogramme de la Société Française de Microbiologie).

MRSA = type: cell-based, Staphylococcus aureus
Procedure: as §3

Morganella morganii = type: cell-based
Procedure: as §3

Pseudomonas aeruginosa = type: cell-based
Procedure: as §3

Candida albicans = type: cell-based
Procedure: as §3

Serratia marcescens = type: cell-based
Procedure: as §3

Citrobacter freundii = type: cell-based
[4] = test system: methicillin resistant S. aureus (MRSA, strain S1); test: Antibacterial growth inhibition assay, MRSA strain S1; type: cell-based, Staphylococcus aureus; settings: MHB medium pH 7.4, 24 h at 37 °C, A620 nm, triplicates
Procedure: as §1

[5] = test system: C. albicans (ATCC 10231TM); test: Antimicrobial assay against C. albicans ATCC 10231; type: cell-based, Candida albicans; settings: Sabouraud medium, 24 h at 37 °C, OD620nm, lowest concentration inhibiting 100% of growth
Procedure: Antimicrobial assays against C. albicans (ATCC 10231TM) were realized according to the method previously reported. C. albicans was cultured in Sabouraud medium (Sigma-Aldrich, Saint Louis, USA) supplemented with tetracycline (10 μg/mL) and cefotaxime (10 μg/mL) at 37 °C for 24 h. C. albicans (OD620nm = 0.001) were plated in 96-well plates and treated either with different concentrations of the peptides of interest, and/or with different concentrations of voriconazole (VCZ) (Sigma-Aldrich, Saint Louis, USA). As a positive control, cells were treated with 10 μg/mL VCZ. After 24 h incubation, yeast growth was assessed by optical density OD620nm using a spectrophotometer Multiskan EX Microplate Reader Lab (Thermo Fisher Scientific, Waltham, MA, USA).
The MIC of the antifungal agents is defined as the lowest concentration of drug able to inhibit 100% of the growth of C. albicans.

[6] = test system: proteases produced by Staphylococcus aureus; test: proteases produced by Staphylococcus aureus; settings: cited from earlier work
[7] = test system: Human Peripheral Blood Mononuclear Cells (PBMCs); test: Cytokine release assay, Bio-Plex Multiplex Immunoassay; type: cell-based; settings: 30 µM, 24 h, IL-6, IL-8, IL-10 pointed out, two healthy volunteers
From the text: as §2

Escherichia coli = type: cell-based
Procedure: as §3

## CSCC[C@@H](NC(=O)[C@@H](CO)NC(=O)[C@@H](CCCNC(=N)N)NC(=O)[C@H](CCC(=O)O)NC(=O)CNC(=O)CNC(=O)[C@H](CCCNC(=N)N)NC(=O)[C@H](CC(C)C)NC(=O)[C@@H](NC(=O)[C@H](Cc1ccc(O)c(O)c1)NC(=O)[C@H](CCCCN)NC(=O)[C@H](Cc1ccc(O)c(O)c1)NC(=O)[C@H](CCCCN)NC(=O)[C@@H](N)Cc1ccc(O)c(O)c1)[C@@H](C)O)C(=O)N[C@H](CCCNC(=N)N)C(=O)N[C@H](CC(C)C)C(=O)N[C@H](CO)C(=O)N[C@H](Cc1ccccc1)C(=O)N[C@H](CCCNC(=N)N)C(=O)N[C@H](C)C(=O)N[C@H](CCCNC(=N)N)C(=O)NCC(=O)N[C@H](Cc1ccc(O)cc1)C(=O)NCC(=O)N[C@H](Cc1ccccc1)C(=O)N[C@H](CCCNC(=N)N)C(=O)O [DOPA5T-(D)Ctl] (H-[Dopa]K[Dopa]K[Dopa]TLRGGE[dR][dS][dM][dR][dL][dS][dF][dR][dA][dR]G[dY]G[dF][dR]-OH)
[1]; methicillin sensitive (, strain 49775, 24 h)
  IC50: 35 µM

## RSMRLSFRARGYGFRMal-(12PEG)-MalRFGYGRARFSLRMSR [Peptide P4, dimeric form of Ctl with spacer of 12 PEG]
[1]
  MIC100 MSSA: > 100 µM

## TLRGGE-RSMRLSFRARGYGFR
[2]
  cleaved bond: R-A, major
[3]
  cleaved bond: R-A, major
  fragment found: TLRGGE, major

## Catestatin [Cts]
CD14 cells; 15 µM, cell type not given
  production of IL-6: not modified
  production of IL-10: not modified
  production of TNF-α: not modified
CD14 cells; CD14, 15 µM
  decrease of the amount of IL-8 released versus controls (without peptide): 26%

## CSCC[C@@H](NC(=O)[C@H](N)Cc1ccccc1)C(=O)N[C@H](CCCNC(=N)N)C(=O)N[C@H](CC(C)C)C(=O)N[C@H](CCCNC(=N)N)C(=O)N[C@H](Cc1ccc(O)cc1)C(=O)N[C@H](CCCNC(=N)N)C(=O)N[C@H](CO)C(=O)N[C@H](CO)C(=O)N[C@H](C)C(=O)N[C@H](Cc1ccccc1)C(=O)NCC(=O)NCC(=O)N[C@H](CCCNC(=N)N)C(=O)N[C@H](CCCNC(=N)N)C(=O)O [Control D, reference compound] (H-[dF][dM][dR][dL][dR][dY][dR][dS][dS][dA][dF]GG[dR][dR]-OH)
MSSA
  MIC: > 128 µg/mL
MRSA
  MIC: > 128 µg/mL
Morganella morganii
  MIC: > 128 µg/mL
Pseudomonas aeruginosa
  MIC: > 128 µg/mL
Candida albicans
  MIC: 512 µg/mL (≈ 275 µM)
Serratia marcescens
  MIC: > 128 µg/mL
Citrobacter freundii
  MIC: 128 µg/mL (≈ 68.8 µM)

## RSMRLSFRARGYGFRMal-(16PEG)-MalRFGYGRARFSLRMSR [Peptide P5, dimeric form of Ctl with spacer of 16 PEG]
[4]
  MIC100 MRSA: > 100 µM
[1]
  MIC100 MSSA: > 100 µM
[5]
  MIC100 C. albicans: 50 µM

## RSMRLSFRARGYGFR
[6]
  not cleaved: resistant to degradation by the proteases produced by Staphylococcus aureus

## CSCC[C@H](NC(=O)[C@H](CO)NC(=O)[C@@H](N)CCCNC(=N)N)C(=O)N[C@@H](CCCNC(=N)N)C(=O)N[C@@H](CC(C)C)C(=O)N[C@@H](CO)C(=O)N[C@@H](Cc1ccccc1)C(=O)N[C@@H](CCCNC(=N)N)C(=O)N[C@@H](C)C(=O)N[C@@H](CCCNC(=N)N)C(=O)NCC(=O)N[C@@H](Cc1ccc(O)cc1)C(=O)NCC(=O)N[C@@H](Cc1ccccc1)C(=O)N[C@@H](CCCNC(=N)N)C(=O)N[C@@H](CSC1CC(=O)N(CCOCCOCCOCCN2C(=O)CC(SC[C@H](NC(=O)[C@H](CCCNC(=N)N)NC(=O)[C@H](Cc3ccccc3)NC(=O)CNC(=O)[C@H](Cc3ccc(O)cc3)NC(=O)CNC(=O)[C@H](CCCNC(=N)N)NC(=O)[C@H](C)NC(=O)[C@H](CCCNC(=N)N)NC(=O)[C@H](Cc3ccccc3)NC(=O)[C@H](CO)NC(=O)[C@H](CC(C)C)NC(=O)[C@H](CCCNC(=N)N)NC(=O)[C@H](CCSC)NC(=O)[C@H](CO)NC(=O)[C@@H](N)CCCNC(=N)N)C(=O)O)C2=O)C1=O)C(=O)O (stereo partly drawn) [Peptide P3] (I: H-RSMRLSFRARGYGFRC-OH / II: H-RSMRLSFRARGYGFRC-OH; linker I:16-II:16 via X1; N-terminus and C-terminus assumed)
[4]
  MIC100 MRSA: 50 µM (≈ 214 µg/mL)
[1]
  MIC100 MSSA: 30 µM (≈ 128 µg/mL)
[5]
  MIC100 C. albicans: 20 µM (≈ 85.6 µg/mL)
[7]
  release of the tested cytokines from PBMCs: unable to induce te release of the tested cytokines; also recorded: unable to release significantly the tested cytokines

## RSMRLSFRARGYGFRMal-(46PEG)-MalRFGYGRARFSLRMSR [Peptide P6, dimeric form of Ctl with spacer of 46 PEG]
[1]
  MIC100 MSSA: > 100 µM

## DOPA-K-DOPA-K-DOPA-TLRGGE-RSMRLSFRARGYGFR
[3]
  cleaved bond: E-R, major

## CSCC[C@@H](NC(=O)[C@@H](CO)NC(=O)[C@H](N)CCCNC(=N)N)C(=O)N[C@H](CCCNC(=N)N)C(=O)N[C@H](CC(C)C)C(=O)N[C@H](CO)C(=O)N[C@H](Cc1ccccc1)C(=O)N[C@H](CCCNC(=N)N)C(=O)N[C@H](C)C(=O)N[C@H](CCCNC(=N)N)C(=O)NCC(=O)N[C@H](Cc1ccc(O)cc1)C(=O)NCC(=O)N[C@H](Cc1ccccc1)C(=O)N[C@H](CCCNC(=N)N)C(=O)O [D-Ctl] (H-[dR][dS][dM][dR][dL][dS][dF][dR][dA][dR]G[dY]G[dF][dR]-OH)
MRSA
  MIC: 64 µg/mL (≈ 34.4 µM)
Morganella morganii
  MIC: > 128 µg/mL
Candida albicans
  MIC: 256 µg/mL (≈ 138 µM)
Escherichia coli
  MIC against several strains of E. coli: 8 to 32 µg/mL
